Test results reported in US11008292B2, “FGFR4 inhibitor and preparation method and use thereof” (GUANGDONG ZHONGSHENG PHARMACEUTICAL CO., LTD, priority 2016, dated 2021).

Assays:
[1] = molecular target: T1, FGFR4 kinases (Homo sapiens, UniProt P22455); experiment: In vitro enzyme activity test, Z′-LYTE Assay, FGFR4 enzymatic reaction; assay type: biochemical; conditions: Z′-LYTE detection; 150 μM ATP
T1 construct: purchased Life technology
Procedure: (§1) The inhibitory effects of the compounds on FGFR4 kinases were assessed by detecting the enzymatic activities through Z′-LYTE® Assay, with the IC50 value of the compound as the indicator. This activity test was performed by Life technology.
(§2) The test compounds were diluted in a concentration gradient of 3-times, the final concentrations were 10 concentrations ranging from 10 μM to 0.5 nM, with double hole for each concentration; the content of DMSO in the detection reaction was 1%.
FGFR4 Enzymatic Reaction:
[…] The detection plate was Bar-coded Corning, low volume NBS, black 384-well plate, reaction conducted at room temperature for 60 minutes, and the reaction system was 10μμL.
(§3) To the kinase reaction solution was added 5 μL Development reagent B (1:64) to stop the reaction and incubated at 23° C. for 60 minutes, reading the plate with Envision instrument.
(§4) Data was transformed into the phosphorylation rate and the inhibitory rate by curve fitting with Model 205 in XLFIT (iDBS) to obtain the IC50 data of the compounds. It was set as 0% if the bottom of the curve was not in the range of −20% to 20%; otherwise it was set as 100% if the top of the curve was not in the range of 70% to 130%.

[2] = molecular target: T2, FGFR1 protein kinase (Homo sapiens, UniProt P11362); experiment: In vitro enzyme activity test, Z′-LYTE Assay, FGFR1 enzymatic reaction; assay type: biochemical; conditions: Z′-LYTE detection; 25 μM ATP
T2 construct: purchased Life technology
T2 sequence (P11362 22-822): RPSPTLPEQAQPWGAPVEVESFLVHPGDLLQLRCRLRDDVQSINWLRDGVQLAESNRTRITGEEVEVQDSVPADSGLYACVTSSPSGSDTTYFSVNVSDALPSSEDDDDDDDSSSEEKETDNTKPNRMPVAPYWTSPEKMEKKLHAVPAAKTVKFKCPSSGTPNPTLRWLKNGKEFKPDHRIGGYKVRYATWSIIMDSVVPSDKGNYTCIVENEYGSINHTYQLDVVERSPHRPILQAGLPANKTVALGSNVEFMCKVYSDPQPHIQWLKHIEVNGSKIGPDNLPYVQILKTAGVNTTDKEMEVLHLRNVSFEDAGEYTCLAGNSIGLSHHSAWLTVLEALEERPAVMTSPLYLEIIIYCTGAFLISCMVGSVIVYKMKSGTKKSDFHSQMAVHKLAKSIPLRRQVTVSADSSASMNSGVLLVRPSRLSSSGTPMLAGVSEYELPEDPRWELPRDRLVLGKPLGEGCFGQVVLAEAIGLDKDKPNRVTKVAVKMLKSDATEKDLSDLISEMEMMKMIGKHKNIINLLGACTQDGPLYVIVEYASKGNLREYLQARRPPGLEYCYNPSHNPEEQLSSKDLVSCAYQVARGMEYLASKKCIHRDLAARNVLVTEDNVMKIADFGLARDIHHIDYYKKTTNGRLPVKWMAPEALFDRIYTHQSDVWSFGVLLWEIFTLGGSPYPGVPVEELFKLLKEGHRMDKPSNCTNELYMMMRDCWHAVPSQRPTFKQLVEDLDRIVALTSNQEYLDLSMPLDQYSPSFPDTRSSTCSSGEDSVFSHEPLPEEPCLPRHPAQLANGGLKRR
Procedure: as §1, §2
FGFR1 Enzymatic Reaction:
1 nM FGFR1 protein kinase, 2 μM Tyr4 peptide, 25 μM ATP, 50 mM HEPES (pH 7.5), 10 mM MgCl2, 1 mM EGTA, 0.01% BRIJ-35, 2 mM MnCl2, 1 mM DTT. The detection plate was Black Proxiplate 384-Plus plate (PerkinElmer), reaction conducted at room temperature for 60 minutes, and the reaction system was 10μμL.
as §3, §4

[3] = Pharmacokinetic evaluation in mice (IV and oral gavage); assay type: in vivo, female Balb/c nude mice; conditions: for AUC(0-t) / clearance / half-life / Vd / Cmax / Tmax: mouse, plasma; for clearance: read-out: Cl (plasma clearance); for half-life: read-out: T1/2 (elimination half-life) (converted); for Vd: read-out: Vdss (steady-state apparent volume of distribution); for Cmax: read-out: Cmax (peak concentration); for Tmax: read-out: Tmax (time to peak)
Procedure: […] The test compound suspended in the corresponding solvent at 1 mg/ml was administered by gavage to female Balb/c nude mice (fasted overnight, at an age of 7-9 weeks), with a dosage of 10 mg/kg. Two groups of animals were both blood sampled about 30 μL from jugular vein or tail vein at 0.0833, 0.25, 0.5, 1.0, 2.0, 4.0, 6.0, 8.0 and 24 h post-administration, which was placed into an anticoagulant tube charged with EDTA-K2, and plasma was separated by centrifugation. Plasma concentrations were determined by LC-MS/MS process using WinNonlin™ Version 6.3 (Pharsight, Mountain View, Calif.) pharmacokinetic software, calculating the related pharmacokinetic parameters with a linear logarithmic trapezoidal method for […] models.

[4] = system: Hep3B Transplantation Models; experiment: Tumor growth inhibition (TGI), antitumor activity test of mice in vivo; conditions: 100 mg/kg, BID, Hep3B transplantation model
Procedure: The evolutionary growth potential of a tumor was assessed by the relationship between the volume of the tumor and time. The long axis (L) and short axis (W) of a subcutaneous tumor were determined by a caliper twice a week, the tumor volume (TV) was calculated by the formula of ((L×W^2)/2). TGI was calculated by the difference value between the median of tumor volumes of mice in the solvent group and the median of tumor volumes of mice in the drug group, and represented by the percentage accounting for the median of tumor volumes in the solvent control group,
Calculated by the following formula: % TGI=((the median of tumor volume (control group)−the median of tumor volume (dosing group))/the median of tumor volume (control group))×100%
The original statistical analysis was completed by the analysis of repeated variance determination. Subsequently, multiple comparisons were performed by a Scheffe psot hoc experimental method. Single solvent (0.5% methylcellulose+1% aqueous solution of Tween) was the negative control.

[5] = IV tail vein 2 mg/kg, female Balb/c nude mice
[6] = PO gavage 10 mg/kg, female Balb/c nude mice

T1 sequence (P22455 22-802): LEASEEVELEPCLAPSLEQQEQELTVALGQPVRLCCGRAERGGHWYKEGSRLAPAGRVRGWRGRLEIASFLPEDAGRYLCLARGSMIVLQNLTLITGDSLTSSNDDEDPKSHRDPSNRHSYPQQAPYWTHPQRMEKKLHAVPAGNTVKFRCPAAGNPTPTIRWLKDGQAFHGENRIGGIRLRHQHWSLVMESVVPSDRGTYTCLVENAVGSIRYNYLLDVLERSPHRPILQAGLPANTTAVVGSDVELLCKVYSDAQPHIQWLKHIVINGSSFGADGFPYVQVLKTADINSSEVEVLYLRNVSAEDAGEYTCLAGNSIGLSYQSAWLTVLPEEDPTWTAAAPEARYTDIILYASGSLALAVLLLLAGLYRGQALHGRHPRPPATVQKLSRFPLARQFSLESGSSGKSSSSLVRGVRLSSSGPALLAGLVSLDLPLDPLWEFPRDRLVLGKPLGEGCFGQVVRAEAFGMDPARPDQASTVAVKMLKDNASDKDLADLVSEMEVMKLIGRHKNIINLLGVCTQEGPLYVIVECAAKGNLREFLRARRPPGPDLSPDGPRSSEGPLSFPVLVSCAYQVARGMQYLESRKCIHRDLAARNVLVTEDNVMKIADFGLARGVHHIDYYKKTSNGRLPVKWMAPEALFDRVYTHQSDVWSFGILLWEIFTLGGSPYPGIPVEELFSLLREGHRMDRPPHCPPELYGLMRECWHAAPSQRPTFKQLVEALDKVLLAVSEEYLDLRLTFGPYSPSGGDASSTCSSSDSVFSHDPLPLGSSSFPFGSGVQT

Row | IC50 [1] [nM] | IC50 [2] [nM] | F (bioavailability; oral absorption ratio) ([3]; PO gavage 10 mg/kg vs IV 2 mg/kg, female Balb/c nude mice) [%] | AUC(0-t) [3, 5] [µM·h] | clearance [3, 5] [mL/min/kg] | half-life [3, 5] [min] | Vd [3, 5] [L/kg] | AUC(0-t) [3, 6] [µM·h] | Cmax [3, 6] [nM] | Tmax [3, 6] [min] | stability enhanced (plasma clearance) compared with the control example 4 ([3]; IV, mice, ratio to control example 4) [times] | SMILES | TGI % (dosing on Day 21 for the last time) [4] [%]
1 | 17 | 1460 | 20.4 | 1.42 | 48.2 | 17.5 | 0.723 | 1.07 | 1120 | 15 |  | C=CC(=O)NC1COCC1Nc1ncc(C=C(F)c2c(Cl)c(OC)cc(OC)c2Cl)cn1 (single isomer, unassigned) [Example 21] | 106
2 | 67.5 | 2520 |  | 2.8 | 23.9 | 40.6 | 1.2 | 5.64 | 3290 | 30 | 3 | C=CC(=O)N[C@H]1CCOC[C@H]1Nc1ncc(/C=C(\F)c2c(Cl)c(OC)cc(OC)c2Cl)cn1 [Example 16] | 89
